Reference: US12685749B2, “Multi-functional cleaning and/or debridement composition” (CORTICALIS AS, priority 2021, dated 2026)
Read-outs that look alike come from different tables or passages of the source.

How the values were obtained:
[1] = test system: Staphylococcus epidermidis biofilm; assay: Removal of biofilm from titanium disks, safranin staining; type: cell-based; conditions: two minutes exposure
Text: Chemically pure (cp) titanium disks with a diameter of 6.2 mm and a height of 2 mm were used. […] After production, the disks were washed with NaOH at 40% v/v and HNO3 at 50% v/vin an ultrasonic bath to remove contaminants, then were washed with deionised water to reach a neutral pH and stored at room temperature in 70% v/v ethanol. Thereafter, the coins were placed in Eppendorf tube and steam autoclaved for sterilization.
Four chemical decontamination agents were selected for the in vitro testing: sterile saline H2O (VWR, Oslo, Norway), Chlorhexidine, 3% v/v H2O2(VWR, Oslo, Norway), a mixture of 3% v/v H2O2 and 2 g/L TiO2 (2 g nano-particles: P25 Aeroxide, Degussa Evonik, Evonik Industries AG, Essen, Germany).
15 sterile titanium disks per groups were inoculated. […] The amount of biofilm present on the surface of the titanium samples was assessed by using the safranin staining method: 10 min exposure to a 0.1% solution of safranin, then rinsed with distilled water, air dried, and exposed to a solution of 30% acetic acid to release the colored biomass from the titanium surfaces. The intensity of the staining was analyzed using a Synergy HT Multi-Detection Microplate Reader (Biotek, VT, USA) with a wavelength of 530 nm.

[2] = cited from earlier work
[3] = Text: Methylene blue (MB) is a heterocyclic aromatic chemical compound with molecular formula: C16H18N3SCl (SigmaAldrich, Oslo, Norway). It has many uses in a range of different fields, such as biology and chemistry. […] A degradation of MB therefore can be used as a model for the in vivo degradation of organic material, such as bacteria, or dead, damaged, and/or infected tissue. At room temperature, it appears as a solid, odourless, dark green powder, that yields a blue solution when dissolved in water. When degraded in solution, methylene blue becomes colourless.
When methylene blue is analysed by UV-vis spectrophotometry (Lambda 25, Perkin Elmer, USA), it absorbs light at […]. This machine was used to quantify the degradation of MB.
The aim was to measure if methylene blue could be degraded by H2O2(PERDROGEN® 30% H2O2 (v/v), Sigma Aldrich AS, Oslo, Norway) at 5% only, without ACP in a composite hydrogel formulation comprising poloxamers (Sigma Aldrich AS, Oslo, Norway) at a concentration of 5% w/v. Then, an increasing concentration of amorphous calcium phosphates ACP (by mixing two precursor components. Component A contained MB in a mixture of mono- and dibasic ammonium phosphate at pH 5.5.) was added to the solution until a maximum concentration of 8 g/L.
The measurements were taken every 3 minutes for one hour. The pH of the suspension containing MB was also registered. […]

[4] = pH of the suspension containing MB; type: physicochemical

**Q.** What does the source list for `OO` [H2O2, Hydrogen peroxide]?
**A.** biofilm removal with higher concentration [1]: increased the biofilm removal; effect on wound healing ([2]; 0.03% v/v solution, only if not applied repeatedly): may induce healing; effect on wound healing ([2]; 0.5% v/v solution): impede healing; MB degradation ([3]; adding 5% v/v H2O2 to the ACP suspension): increased the MB degradation; MB degradation ([3]; increasing concentration of H2O2 in the ACP suspension): increased the MB degradation in a linear way; pH of the suspension ([4]; ACP suspension with MB, with H2O2 at 15% v/v): 3.3; pH of the suspension ([4]; H2O2 suspension with MB, without ACP): 3.7
